Experiments:
Format in all cases: in vivo, mouse
[1] = test system: Swiss mice with partial portal vein ligation (PPVL); assay: Corrosion vascular casting of venous mesenteric vasculature analyzed by μCT in PPVL model; settings: for mesenteric vascular wall thickness: control 20.31, PPVL 37.53
Protocol: (§1) Experiments were carried out using Swiss mice (7 to 10 animals per groups). Portal hypertension was induced using the partial portal vein ligation (PPVL) model. A midline abdominal incision was performed and the portal vein was separated from the surrounding tissue. A ligature (silk cut 5-0) was tied around both portal vein and adjacent 27-gauge blunt-tipped needle. Subsequent removal of the needle yielded a calibrated stenosis of the portal vein. One week after the ligation mice received daily lanifibranor (10 mg/kg or 30 mg/kg) or vehicle in a therapeutic setting for 7 days. The effect of lanifibranor on angiogenesis was evaluated by analyzing hepatic and systemic hemodynamics, serum, hepatic and mesenteric histology. The vascular corrosion casting is a technic allowing the capture of the 3D structure of the vascular bed. Briefly the vascular corrosion casts were obtained by inserting, after euthanasia, a 26-gauge catheter into the ileocolic vein, which was then perfused with Batson n°17 solution. The soft tissue was dissolved overnight in a 25% potassium hydroxide solution. The vascular corrosion casts of the venous mesenteric vasculature were analyzed using μCT.

[2] = test system: Swiss mice with partial portal vein ligation (PPVL); assay: Spleen weight in partial portal vein ligation (PPVL) model; settings: for spleen weight: control 0.38, PPVL 0.63; for reduction of spleen weight: control 0.38, PPVL 0.63% body weight
Protocol: as §1

[3] = test system: Swiss mice with partial portal vein ligation (PPVL); assay: Hemodynamic parameters (flow superior mesenteric artery) in partial portal vein ligation (PPVL) model; settings: lanifibranor 30 mg/kg daily for 7 days, started one week after ligation
Protocol: as §1

[4] = test system: Swiss mice with partial portal vein ligation (PPVL); assay: Immunohistochemistry staining for CD34 (angiogenesis and vascular expansion) in mesenteric area in PPVL model
Protocol: as §1, with “μCT. Evaluation of the vasculature system with an immunohistochemistry staining for CD34 allow to highlight the increase of blood vessels in the mesenteric area in PPVL animals. […]” for “μCT.”

O=C(O)CCCc1cc2cc(Cl)ccc2n1S(=O)(=O)c1ccc2ncsc2c1 [lanifibranor, 4-[1-(1,3-benzothiazol-6-ylsulfonyl)-5-chloroindol-2-yl]butanoic acid]
reduction of mesenteric vascular wall thickness ([1]; 10 mg/kg daily for 7 days): 49.8%
mesenteric vascular wall thickness ([1]; 10 mg/kg daily for 7 days): 28.9 µm
reduction of mesenteric vascular wall thickness ([1]; 30 mg/kg daily for 7 days): 52.3%
mesenteric vascular wall thickness ([1]; 30 mg/kg daily for 7 days): 28.5 µm
expansion of the venous mesenteric vasculature ([1]; lanifibranor treatment, data not shown): reduced
spleen weight ([2]; 10 mg/kg daily for 7 days): 0.57 % body weight
reduction of spleen weight ([2]; 10 mg/kg daily for 7 days): 23.7%
spleen weight ([2]; 30 mg/kg daily for 7 days): 0.49 % body weight
reduction of spleen weight ([2]; 30 mg/kg daily for 7 days): 56.1%
reduction of flow superior mesenteric artery [3]: 51.7%
reduction of staining for CD34 ([4]; 10 mg/kg daily for 7 days): 69.5%
reduction of staining for CD34 ([4]; 30 mg/kg daily for 7 days): 135.8%
